# Patent US7511065B2, “Mixed lineage kinase modulators” (Eli Lilly and Company, priority 2002, dated 2009)
# Biological target: T1, MLK-7 (Homo sapiens, UniProt Q9NYL2)
# T1 construct: GST; His tag; made in house; host or cells: Sf9 insect cells (baculovirus, pVL1392)
# Test: In vitro assay of purified MLK-7 kinase activity (33P transfer from ATP to myelin basic protein)
# Type: biochemical
# Details: recombinant GST-tagged MLK-7 at 1 nm, 30 uM ATP, 5 uM MBP substrate, 2 hours room temperature; read-out: MLK7 IC50
# Summary of the method: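 GST/His-tagged MLK-7 from Sf9 (baculovirus), 1 nM, with 5 uM MBP, 30 uM ATP plus 33P, 5 mM MgCl2, 2 mM DTT, 4% DMSO in 44 mM HEPES pH 7.4; 2 h at room temperature, stopped with phosphoric acid. Filter-bound 33P counted; IC50 for reduced phosphate transfer, Ki via Cheng-Prusoff.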
# T1 sequence (Q9NYL2 1-455 isoform Q9NYL2-2): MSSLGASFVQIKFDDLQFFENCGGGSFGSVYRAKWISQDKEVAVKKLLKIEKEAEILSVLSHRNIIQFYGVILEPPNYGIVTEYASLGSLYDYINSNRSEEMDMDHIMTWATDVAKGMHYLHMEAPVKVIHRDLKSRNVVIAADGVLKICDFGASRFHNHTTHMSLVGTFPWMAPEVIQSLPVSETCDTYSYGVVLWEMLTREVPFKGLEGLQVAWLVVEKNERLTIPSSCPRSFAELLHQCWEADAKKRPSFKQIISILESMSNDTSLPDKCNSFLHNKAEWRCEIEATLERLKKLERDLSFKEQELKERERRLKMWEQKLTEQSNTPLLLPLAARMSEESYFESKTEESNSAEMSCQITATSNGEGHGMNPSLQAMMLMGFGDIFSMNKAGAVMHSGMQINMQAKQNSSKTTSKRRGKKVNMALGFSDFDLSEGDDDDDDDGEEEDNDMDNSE
row,IC50,Structure (SMILES)
1,≤ 10000 nM,"Fc1ccc(-c2ccc3c(-c4c(-c5ccccn5)nn5c4CCC5)ccnc3c2)nc1 [Example 83, 7-(5-Fluoropyridin-2-yl)-4-(2-Pyridin-2-yl-5,6-dihydro-4H-pyrrolo[1,2-b]pyrazol-3-yl)quinoline Ditrifluoroacetic Acid]"
2,≤ 100 nM,"NC(=O)CCCc1ccc(-c2ccc3c(-c4c(-c5ccccn5)nn5c4CCC5)ccnc3c2)cc1 [Example 86, 4-{4-[4-(2-Pyridin-2-yl-5,6-dihydro-4H-pyrrolo[1,2-b]pyrazol-3-yl)quinolin-7-yl]phenyl}butyramide Trifluoroacetic Acid]"
3,≤ 100 nM,"Nc1ccc(-c2ccc3c(-c4c(-c5ccccn5)nn5c4CCC5)ccnc3c2)cc1Cl [Example 90, 2-Chloro-4-[4-(2-pyridin-2-yl-5,6-dihydro-4H-pyrrolo[1,2-b]pyrazol-3-yl)-quinolin-7-yl]-phenylamine Ditrifluoroacetic Acid]"
4,≤ 100 nM,"Oc1c(F)cc(-c2ccc3c(-c4c(-c5ccccn5)nn5c4CCC5)ccnc3c2)cc1Cl [Example 91, 2-Chloro-6-fluoro-4-[4-(2-pyridin-2-yl-5,6-dihydro-4H-pyrrolo[1,2-b]pyrazol-3-yl)-quinolin-7-yl]-phenol Trifluoroacetic Acid]"
5,≤ 100 nM,"NS(=O)(=O)c1ccc(-c2ccc3c(-c4c(-c5ccccn5)nn5c4CCC5)ccnc3c2)s1 [Example 92, 5-[4-(2-Pyridin-2-yl-5,6-dihydro-4H-pyrrolo[1,2-b]pyrazol-3-yl)-quinolin-7-yl]-thiophene-2-sulfonic acid amide Trifluoroacetic Acid]"
6,≤ 100 nM,"Oc1cc(-c2ccc3c(-c4c(-c5ccccn5)nn5c4CCC5)ccnc3c2)cc(F)c1F [Example 93, 2,3-Difluoro-5-[4-(2-pyridin-2-yl-5,6-dihydro-4H-pyrrolo[1,2-b]pyrazol-3-yl)-quinolin-7-yl]-phenol Trifluoroacetic Acid]"
7,≤ 100 nM,"Nc1nc2ccc(-c3ccc4c(-c5c(-c6ccccn6)nn6c5CCC6)ccnc4c3)cc2s1 [Example 94, 6-[4-(2-Pyridin-2-yl-5,6-dihydro-4H-pyrrolo[1,2-b]pyrazol-3-yl)-quinolin-7-yl]-benzothiazol-2-yl amine Tris trifluoroacetic Acid]"
8,≤ 100 nM,"NS(=O)(=O)c1ccc(-c2ccc3c(-c4c(-c5ccccn5)nn5c4CCC5)ccnc3c2)cc1 [Example 95, 4-[4-(2-Pyridin-2-yl-5,6-dihydro-4H-pyrrolo[1,2-b]pyrazol-3-yl)-quinolin-7-yl]-benzenesulfonamide]"
9,≤ 100 nM,"NS(=O)(=O)c1cccc(-c2ccc3c(-c4c(-c5ccccn5)nn5c4CCC5)ccnc3c2)c1 [Example 96, 3-[4-(2-Pyridin-2-yl-5,6-dihydro-4H-pyrrolo[1,2-b]pyrazol-3-yl)-quinolin-7-yl]-benzenesulfonamide]"
10,≤ 1000 nM,"NS(=O)(=O)c1ccccc1-c1ccc2c(-c3c(-c4ccccn4)nn4c3CCC4)ccnc2c1 [Example 97, 2-[4-(2-Pyridin-2-yl-5,6-dihydro-4H-pyrrolo[1,2-b]pyrazol-3-yl)-quinolin-7-yl]-benzenesulfonamide]"
11,≤ 1000 nM,"c1ccc(-c2nn3c(c2-c2ccnc4cc(-n5ccnc5)ccc24)CCC3)nc1 [Example 98, 7-Imidazol-1-yl-4-(2-pyridin-2-yl-5,6-dihydro-4H-pyrrolo[1,2-b]pyrazol-3-yl)quinoline Ditrifluoroacetic Acid]"
12,≤ 1000 nM,"c1ccc(-c2nn3c(c2-c2ccnc4cc(-n5cncn5)ccc24)CCC3)nc1 [Example 99, 4-(2-Pyridin-2-yl-5,6-dihydro-4H-pyrrolo[1,2-b]pyrazol-3-yl)-7-[1,2,4]triazol-1-yl-quinoline ditrifluoroacetic Acid]"
13,≤ 100 nM,"c1ccc(-c2nn3c(c2-c2ccnc4cc(-n5cccn5)ccc24)CCC3)nc1 [Example 100, 7-Pyrazol-1-yl-4-(2-pyridin-2-yl-5,6-dihydro-4H-pyrrolo[1,2-b]pyrazol-3-yl)quinoline Trifluoroacetic Acid]"
14,≤ 1000 nM,"c1ccc(-c2nn3c(c2-c2ccnc4cc(-n5ccnn5)ccc24)CCC3)nc1 [Example 101, 4-(2-pyridin-2-yl-5,6-dihydro-4H-pyrrolo[1,2-b]pyrazol-3-yl-)-7-[1,2,3]triazol-1-yl-quinoline ditrifluoroacetic Acid]"
15,≤ 10000 nM,"CC(C)(C)OC(=O)N1CCN(c2ccc3c(-c4c(-c5ccccn5)nn5c4CCC5)ccnc3c2)CC1 [Example 102, 4-[4-(2-Pyridin-2-yl-5,6-dihydro-4H-pyrrolo[1,2-b]pyrazol-3-yl)-quinolin-7-yl]-piperazine-1-carboxylic Acid tert-Butyl Ester]"
16,≤ 1000 nM,"c1ccc(-c2nn3c(c2-c2ccnc4cc(N5CCCCC5)ccc24)CCC3)nc1 [Example 103, 7-Piperidin-1-yl-4-(2-pyridin-2-yl-5,6-dihydro-4H-pyrrolo[1,2-b]pyrazol-3-yl)-quinoline]"
17,≤ 10000 nM,"O=S1(=O)CCN(c2ccc3c(-c4c(-c5ccccn5)nn5c4CCC5)ccnc3c2)CC1 [Example 104, 7-(1,1-Dioxo-1λ^6-thiomorph-olin-4-yl)-4-(2-pyridin-2-yl-5,6-dihydro-4H-pyrrolo[1,2-b]pyrazol-3-yl)-quinoline]"
18,≤ 100 nM,"COC(=O)CCc1ccc(-c2ccc3c(-c4c(-c5ccccn5)nn5c4CCC5)ccnc3c2)cc1 [Example 106, 3-{4-[4-(2-pyridin-2-yl-5,6-dihydro-4H-pyrrolo[1,2-b]pyrazol-3-yl-)quinolin-7-yl]phenyl}propionic Acid Methyl Ester]"
19,≤ 100 nM,"NC(=O)CCc1ccc(-c2ccc3c(-c4c(-c5ccccn5)nn5c4CCC5)ccnc3c2)cc1 [Example 107, 3-{4-[4-(2-Pyridin-2-yl-5,6-dihydro-4H-pyrrolo[1,2-b]pyrazol-3-yl)quinolin-7-yl]phenyl}propionamide]"
20,≤ 100 nM,"CN(C)CCOc1ccc(-c2ccc3c(-c4c(-c5ccccn5)nn5c4CCC5)ccnc3c2)cc1 [Example 108, Dimethyl-(2-{4-[4-(2-Pyridin-2-yl-5,6-dihydro-4H-pyrrolo[1,2-b]pyrazol-3-yl)quinolin-7-yl]phenoxy}ethyl)amine Ditrifluoroacetic Acid]"
21,≤ 100 nM,"c1ccc(-c2nn3c(c2-c2ccnc4cc(-c5ccc(OCCN6CCOCC6)cc5)ccc24)CCC3)nc1 [Example 109, 7-[4-(2-Morpholin-4-yl-ethoxy)phenyl]-4-(2-Pyridin-2-yl-5,6-dihydro-4H-pyrrolo[1,2-b]pyrazol-3-yl)quinoline Ditrifluoroacetic Acid]"
22,≤ 100 nM,"c1ccc(-c2nn3c(c2-c2ccnc4cc(-c5ccc(OCCN6CCCCC6)cc5)ccc24)CCC3)nc1 [Example 110, 7-[4-(2-Piperidin-1-yl-ethoxy)phenyl]-4-(2-Pyridin-2-yl-5,6-dihydro-4H-pyrrolo[1,2-b]pyrazol-3-yl)quinoline Ditrifluoroacetic Acid]"
23,≤ 100 nM,"c1ccc(-c2nn3c(c2-c2ccnc4cc(-c5ccc(OCCN6CCCC6)cc5)ccc24)CCC3)nc1 [Example 111, 4-(2-Pyridin-2-yl-5,6-dihydro-4H-pyrrolo[1,2-b]pyrazol-3-yl)-7-[4-(2-pyrrolidin-1-yl-ethoxy)phenyl] quinoline Ditrifluoroacetic Acid]"
24,≤ 100 nM,"c1ccc(-c2nn3c(c2-c2ccnc4cc(-c5ccc(OCCCN6CCCCC6)cc5)ccc24)CCC3)nc1 [Example 112, 7-[4-(3-Piperdin-1-yl-propoxy)phenyl]-4-(2-Pyridin-2-yl-5,6-dihydro-4H-pyrrolo[1,2-b]pyrazol-3-yl)quinoline Ditrifluoroacetic Acid]"
25,≤ 100 nM,"CN(C)CCCOc1ccc(-c2ccc3c(-c4c(-c5ccccn5)nn5c4CCC5)ccnc3c2)cc1 [Example 113, Dimethyl-(3-{4-[4-(2-Pyridin-2-yl-5,6-dihydro-4H-pyrrolo[1,2-b]pyrazol-3-yl)quinolin-7-yl]phenoxy}propyl)amine Ditrifluoroacetic Acid]"
26,≤ 100 nM,"c1ccc(-c2nn3c(c2-c2ccnc4cc(-c5ccc(OCCCN6CCOCC6)cc5)ccc24)CCC3)nc1 [Example 114, 7-[4-(3-Morpholin-4-yl-propoxy)phenyl]-4-(2-Pyridin-2-yl-5,6-dihydro-4H-pyrrolo[1,2-b]pyrazol-3-yl)quinoline Ditrifluoroacetic Acid]"
27,≤ 100 nM,"c1ccc(-c2nn3c(c2-c2ccnc4cc(-c5ccc(OCCCN6CCCC6)cc5)ccc24)CCC3)nc1 [Example 115, 4-(2-Pyridin-2-yl-5,6-dihydro-4H-pyrrolo[1,2-b]pyrazol-3-yl)-7-[4-(3-pyrrolidin-1-yl-propoxy)phenyl] quinoline Ditrifluoroacetic Acid]"

row,Structure (SMILES),IC50
1,"COc1ccc(-c2ccc3c(-c4c(-c5ccccn5)nn5c4CCC5)ccnc3c2)nn1.O=C(O)C(F)F [Example 84, 7-(6-Methoxypyridazin-3-yl)-4-(2-Pyridin-2-yl-5,6-dihydro-4H-pyrrolo[1,2-b]pyrazol-3-yl)quinoline Difluoroacetic Acid]",≤ 100 nM
2,"O=C(O)C(F)F.c1ccc(-c2nn3c(c2-c2ccnc4cc(-c5ncccn5)ccc24)CCC3)nc1 [Example 85, 4-(2-Pyridin-2-yl-5,6-dihydro-4H-pyrrolo[1,2-b]pyrazol-3-yl)-7-pyrimidin-2-yl-quinoline Difluoroacetic Acid]",≤ 1000 nM
3,"O=C(O)C(F)F.c1ccc(-c2nn3c(c2-c2ccnc4cc(-c5nc6ccccc6[nH]5)ccc24)CCC3)nc1 [Example 87, 7-(1H-Benzoimdazol-2-yl)-4-(2-pyridin-2-yl-5,6-dihydro-4H-pyrrolo[1,2-b]pyrazol-3-yl)quinoline Difluoroacetic Acid]",≤ 100 nM
4,"O=C(O)C(F)F.c1ccc(-c2nn3c(c2-c2ccnc4cc(-c5cncnc5)ccc24)CCC3)nc1 [Example 88, 4-(2-pyridin-2-yl-5,6-dihydro-4H-pyrrolo[1,2-b]pyrazol-3-yl)-7-pyrimidin-5-yl-quinoline Difluoroacetic Acid]",≤ 1000 nM
